Reference: patent publication US8030547B2, “Gene coding for acetolactate synthase” (priority 2002, dated 2011)

How the values were obtained:
Format in all cases: cell-based, Oryza sativa var. Kinmaze
[1] = system: Sr line resistant mutant rice culture cells; assay: Growth of rice culture cells (relative wet weight of callus) in the presence of herbicide, Sr line
Protocol: (§1) Next, endosperm portions were removed from the callus induced on the medium, and then subculture was performed. Then, part of the obtained calli was sub-cultured, that is, cultured successively once per two weeks in a liquid medium (the composition is the same as in that shown in Table 3, but not supplemented with Gelrite) supplemented with 1 μM bispyribac-sodium (one type of PC herbicides). Two to 6 weeks later the culture cells started to wither. About 2 months later, a plurality of non-discolored cell masses that were thought to be conducting cell division were obtained from among culture cell populations most of which had died and became discolored brown. These cell masses were isolated and cultured, so that a plurality of cell lines that can proliferate in the presence of 2 μM bispyribac-sodium were obtained. […]
(§2) Approximately 1.5 g (wet weight) of the resistant mutant was transplanted into a 200 ml Erlenmeyer flask supplemented with 50 ml of a MS-2,4-D liquid medium and bispyribac-sodium at a certain concentration, followed by culturing at approximately 27° C. for a certain period. The wet weight of the callus was measured periodically. The relative amount of increase was determined based on the wet weight of the transplanted resistant mutant. In addition, the experiment was performed three times with different bispyribac-sodium concentrations, and the standard error was calculated. […]

[2] = system: Vg line resistant mutant rice culture cells; assay: Growth of rice culture cells (relative wet weight of callus) in the presence of herbicide, Vg line
Protocol: as §1, §2

[3] = system: Ga line resistant mutant rice culture cells; assay: Growth of rice culture cells (relative wet weight of callus) in the presence of herbicide, Ga line
Protocol: as §1, §2

[4] = system: Rb line resistant mutant rice culture cells; assay: Growth of rice culture cells (relative wet weight of callus) in the presence of herbicide, Rb line
Protocol: as §1, §2

[5] = group supplemented with 10 μM, day 8 or 12

SMILES | growth of Sr line on addition of herbicide (relative weight) ([1]; day 8 or 10) | growth of Vg line on addition of herbicide (relative weight) ([2]; day 8 or 10) | growth of Ga line on addition of herbicide (relative weight) ([3]; day 8 or 10) | growth of Rb line on addition of herbicide (relative weight) ([4]; day 8 or 10) | growth of Sr line (relative weight) [1, 5] | effect on the growth of Vg line ([2]; compared with wild type, day 8 or 12) | growth of Ga line (relative weight) [3, 5] | growth of Rb line (relative weight) [4, 5]
COc1nc(C)nc(NC(=O)NS(=O)(=O)c2ccccc2Cl)n1 [chlorsulfuron] | not inhibited so much | not inhibited so much | not inhibited so much | not inhibited so much | – | – | – | –
COc1cc(OC)nc(Oc2cccc(Oc3nc(OC)cc(OC)n3)c2C(=O)O)n1 [bispyribac-sodium] | – | – | – | – | almost none of the growth | smaller than that in the wild type | almost none of the growth | almost none of the growth
